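A five-concentration, 48-hour dose response in 96-well plates underlies each endpoint, interpolated linearly between surrounding concentrations. Here, GI50 denotes the concentration required for 50% inhibition of growth.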 The source made the active and inactive calls. No stated cut-off is given here; in the data, active = GI50 up to about 1.1 µM and inactive = higher.
Assays:
Assay in all cases: growth of human tumour cells (NCI), 48 h
Malme-3M = test system: Malme-3M
RPMI-8226 = test system: RPMI-8226
LOX IMVI = test system: LOX IMVI
SN12C = test system: SN12C
SF-268 = test system: SF-268
BT-549 = test system: BT-549
MOLT-4 = test system: MOLT-4
PC-3 = test system: PC-3
KM12 = test system: KM12
HL-60 = test system: HL-60
NCI-H522 = test system: NCI-H522
MDA-N = test system: MDA-N
MCF7 = test system: MCF7
UACC-62 = test system: UACC-62
HOP-18 = test system: HOP-18
KM-20L2 = test system: KM-20L2
XF498 = test system: XF498
DLD-1 = test system: DLD-1
DMS-273 = test system: DMS-273
SNB-78 = test system: SNB-78

SMILES	GI50 (Malme-3M)	GI50 (RPMI-8226)	GI50 (LOX IMVI)	GI50 (SN12C)	GI50 (SF-268)	GI50 (BT-549)	GI50 (MOLT-4)	GI50 (PC-3)	GI50 (KM12)	GI50 (HL-60)	GI50 (NCI-H522)	GI50 (MDA-N)	GI50 (MCF7)	GI50 (UACC-62)	GI50 (HOP-18)	GI50 (KM-20L2)	GI50 (XF498)	GI50 (DLD-1)	GI50 (DMS-273)	GI50 (SNB-78)
Cc1nc(Cl)c(C)c(Cl)n1	> 100 µM (inactive)	> 100 µM (inactive)	33 µM (inactive)	> 100 µM (inactive)	> 100 µM (inactive)	> 100 µM (inactive)	6.17 µM (inactive)	> 93.3 µM (inactive)	> 59.6 µM (inactive)	8.59 µM (inactive)	< 0.01 µM (active)	18.8 µM (inactive)	> 84.5 µM (inactive)	> 80.4 µM (inactive)	–	–	–	–	–	–
CC1C(=O)C(C)C(c2ccco2)N(N=O)C1c1ccco1 (stereo unspecified)	> 100 µM (inactive)	> 100 µM (inactive)	> 100 µM (inactive)	> 100 µM (inactive)	> 100 µM (inactive)	–	> 100 µM (inactive)	–	> 100 µM (inactive)	> 100 µM (inactive)	> 100 µM (inactive)	–	> 100 µM (inactive)	> 100 µM (inactive)	> 67.1 µM (inactive)	> 100 µM (inactive)	< 0.01 µM (active)	> 100 µM (inactive)	> 100 µM (inactive)	> 100 µM (inactive)
O=C1CCC(=O)C1=NNc1ccccc1	> 100 µM (inactive)	–	> 100 µM (inactive)	> 100 µM (inactive)	> 100 µM (inactive)	–	> 100 µM (inactive)	–	> 100 µM (inactive)	> 100 µM (inactive)	–	–	–	8.38 µM (inactive)	> 100 µM (inactive)	–	–	> 100 µM (inactive)	> 100 µM (inactive)	> 100 µM (inactive)
CCOC(=O)CCN1C(=O)c2c(NC(=O)C(=O)O)cccc2S1(=O)=O	> 100 µM (inactive)	> 100 µM (inactive)	> 100 µM (inactive)	> 100 µM (inactive)	> 100 µM (inactive)	> 100 µM (inactive)	> 100 µM (inactive)	> 100 µM (inactive)	> 100 µM (inactive)	> 100 µM (inactive)	> 100 µM (inactive)	> 100 µM (inactive)	> 100 µM (inactive)	> 100 µM (inactive)	–	–	–	–	–	–
COc1ccc(-c2cc(O)c3c(C)ccnc3n2)cc1	10.8 µM (inactive)	9.31 µM (inactive)	14.3 µM (inactive)	27.7 µM (inactive)	15.1 µM (inactive)	33.7 µM (inactive)	12.1 µM (inactive)	–	3.18 µM (inactive)	–	8.13 µM (inactive)	–	2.03 µM (inactive)	10.6 µM (inactive)	–	–	–	–	–	–
Cc1nc(O)nc(O)c1/C=C/C(=O)O	> 1000 µM (inactive)	> 1000 µM (inactive)	> 1000 µM (inactive)	> 1000 µM (inactive)	> 1000 µM (inactive)	–	> 1000 µM (inactive)	–	> 1000 µM (inactive)	> 1000 µM (inactive)	> 1000 µM (inactive)	–	> 1000 µM (inactive)	> 1000 µM (inactive)	> 1000 µM (inactive)	> 1000 µM (inactive)	> 1000 µM (inactive)	> 1000 µM (inactive)	> 1000 µM (inactive)	> 1000 µM (inactive)
CCc1c(-c2ccc(OC)cc2)oc(OC)c(C)c1=O	–	–	63.7 µM (inactive)	> 100 µM (inactive)	> 100 µM (inactive)	93.8 µM (inactive)	31.9 µM (inactive)	57.4 µM (inactive)	> 100 µM (inactive)	–	47.4 µM (inactive)	–	79.1 µM (inactive)	64 µM (inactive)	–	–	–	–	–	–
C=C1C(=O)OC2C[C@@]3(C)CCCC(=C)C3CC12 (stereo partly specified)	3.52 µM (inactive)	–	1.22 µM (inactive)	4.44 µM (inactive)	12.9 µM (inactive)	–	–	–	2.24 µM (inactive)	–	1.9 µM (inactive)	–	–	5.56 µM (inactive)	17.5 µM (inactive)	12.2 µM (inactive)	3.69 µM (inactive)	3.49 µM (inactive)	2.54 µM (inactive)	3.27 µM (inactive)
CC(=O)c1c(-c2ccco2)c(C#N)c(=S)n(C2OC(CO)C(O)C(O)C2O)c1-c1ccccc1 (stereo unspecified)	63.2 µM (inactive)	> 100 µM (inactive)	36.2 µM (inactive)	54.5 µM (inactive)	61.2 µM (inactive)	> 100 µM (inactive)	31.6 µM (inactive)	64.4 µM (inactive)	64.3 µM (inactive)	41.2 µM (inactive)	–	> 10 µM (inactive)	90.2 µM (inactive)	32 µM (inactive)	–	–	–	–	–	–
CC(=O)OC1COC(N2c3ccccc3[C@@H]3CCc4c([nH]c5ccccc45)[C@@H]32)C(OC(C)=O)C1OC(C)=O.CC(=O)OC1COC(N2c3ccccc3[C@H]3CCc4c([nH]c5ccccc45)[C@H]32)C(OC(C)=O)C1OC(C)=O (stereo partly specified)	> 100 µM (inactive)	12 µM (inactive)	–	59.3 µM (inactive)	30.9 µM (inactive)	56.9 µM (inactive)	5.79 µM (inactive)	16.2 µM (inactive)	12.1 µM (inactive)	–	12.8 µM (inactive)	65.3 µM (inactive)	–	60.5 µM (inactive)	–	–	–	–	–	–
CCOc1ncn(-c2ccc(NC(=S)Nc3ncccn3)cc2)n1	–	10.6 µM (inactive)	17.6 µM (inactive)	51.1 µM (inactive)	> 100 µM (inactive)	20.8 µM (inactive)	20.1 µM (inactive)	46.5 µM (inactive)	> 100 µM (inactive)	16.2 µM (inactive)	17.4 µM (inactive)	–	32.7 µM (inactive)	28.8 µM (inactive)	–	–	–	–	–	–
O=C(CCN1CCOCC1)/C(=C/c1ccccc1)c1ccccc1	2.24 µM (inactive)	2 µM (inactive)	2.61 µM (inactive)	4.15 µM (inactive)	7.11 µM (inactive)	–	2.03 µM (inactive)	–	6.25 µM (inactive)	1.79 µM (inactive)	1.77 µM (inactive)	–	4.28 µM (inactive)	2.49 µM (inactive)	16.7 µM (inactive)	9.82 µM (inactive)	6.5 µM (inactive)	1.89 µM (inactive)	6.28 µM (inactive)	5.51 µM (inactive)
O=C(Nc1ccccc1C(=O)NCCCO)/C(=C/c1ccccc1O)NC(=O)c1ccccc1	95.3 µM (inactive)	> 100 µM (inactive)	21.5 µM (inactive)	> 80.9 µM (inactive)	35.6 µM (inactive)	19.8 µM (inactive)	> 100 µM (inactive)	33.1 µM (inactive)	18.4 µM (inactive)	> 100 µM (inactive)	25.2 µM (inactive)	> 43.5 µM (inactive)	5.36 µM (inactive)	19.5 µM (inactive)	–	–	–	–	–	–
CCP(=O)(CC)C(Cl)(Cl)C(O)C(Cl)(Cl)Cl (stereo unspecified)	–	> 100 µM (inactive)	> 100 µM (inactive)	> 100 µM (inactive)	–	–	> 100 µM (inactive)	> 100 µM (inactive)	–	> 100 µM (inactive)	> 100 µM (inactive)	> 100 µM (inactive)	> 100 µM (inactive)	–	–	–	–	–	–	–
CCN1c2ccccc2-n2c(C)nnc2-c2c(-c3ccccc3)n[nH]c21	–	14.8 µM (inactive)	23.1 µM (inactive)	24.4 µM (inactive)	35.8 µM (inactive)	–	18.2 µM (inactive)	30.4 µM (inactive)	26.5 µM (inactive)	12.4 µM (inactive)	2.25 µM (inactive)	28 µM (inactive)	> 10 µM (inactive)	22.4 µM (inactive)	–	–	–	–	–	–
CCOC(=O)Cc1cc(OC)c(OC)cc1/C(Cl)=C(\C=O)c1ccc(OC)c(OC)c1	27.4 µM (inactive)	9.75 µM (inactive)	17.9 µM (inactive)	15.2 µM (inactive)	–	–	16.9 µM (inactive)	–	–	17.3 µM (inactive)	–	–	–	16.4 µM (inactive)	28.7 µM (inactive)	15.3 µM (inactive)	20 µM (inactive)	16.3 µM (inactive)	19.5 µM (inactive)	22.3 µM (inactive)
O=C(N/C(=C\c1ccccc1[N+](=O)[O-])c1nc2ccccc2[nH]1)c1ccccc1	> 100 µM (inactive)	–	–	> 100 µM (inactive)	–	–	35.1 µM (inactive)	–	> 100 µM (inactive)	–	56.8 µM (inactive)	–	–	62.4 µM (inactive)	–	> 100 µM (inactive)	> 100 µM (inactive)	93.5 µM (inactive)	> 100 µM (inactive)	92.7 µM (inactive)
Cc1c(C)c2ccc(OCC(O)COC(C)C)c(C)c2oc1=O (stereo unspecified)	16.2 µM (inactive)	21.4 µM (inactive)	18.7 µM (inactive)	–	> 100 µM (inactive)	–	> 10 µM (inactive)	45.2 µM (inactive)	56.1 µM (inactive)	35 µM (inactive)	17.2 µM (inactive)	17.7 µM (inactive)	24.4 µM (inactive)	38.5 µM (inactive)	–	–	–	–	–	–
Cc1cc(NC(=S)Nc2ccccc2)c(NC(=S)Nc2ccccc2)cc1C	37.8 µM (inactive)	8.47 µM (inactive)	39.4 µM (inactive)	40.4 µM (inactive)	36.8 µM (inactive)	–	12.8 µM (inactive)	–	5.11 µM (inactive)	1.9 µM (inactive)	7.78 µM (inactive)	–	26.6 µM (inactive)	18.2 µM (inactive)	43.2 µM (inactive)	36.7 µM (inactive)	16.4 µM (inactive)	20.4 µM (inactive)	17 µM (inactive)	–
CCOC(=O)NC(Nc1ncccn1)(C(F)(F)F)C(F)(F)F	> 100 µM (inactive)	> 100 µM (inactive)	> 100 µM (inactive)	> 100 µM (inactive)	> 100 µM (inactive)	> 100 µM (inactive)	> 100 µM (inactive)	–	> 100 µM (inactive)	> 100 µM (inactive)	> 100 µM (inactive)	> 100 µM (inactive)	> 100 µM (inactive)	> 100 µM (inactive)	–	–	–	–	–	–

From ChEMBL document CHEMBL1201862, “PubChem BioAssay data set” (2004)
